Source: article PMC4315936 (Redox Biology, 2015)

Target: mitochondrial complex I (NADH:ubiquinone oxidoreductase, NQR) (Mus musculus, UniProt P03888+Q91WD5+Q9DC70)
Assay: NQR activity
Assay type: biochemical

## O=C1Nc2ccc(Cl)cc2[C@@](C#CC2CC2)(C(F)(F)F)O1 [EFV, efavirenz]
  IC50: < 10 µM
